# Counter-ions that a name gives are not always drawn.
# Experiments:
# [1] = biological target: T1, GnRH receptors (rat pituitary anterior lobe membrane fraction) (Rattus norvegicus, UniProt P30969); assay: 125I-leuprolerin GnRH receptor binding inhibition test, rat pituitary anterior lobe membrane fraction; conditions: 4° C., 90 minutes, read-out: Binding inhibitory activity (IC50 μM) Rat
# T1 construct: the anterior lobe of the pituitary gland was isolated and washed with ice-cooled homogenate buffer; from tissue; host or cells: anterior lobe of the pituitary gland, male Wistar rats (8 weeks old), membrane fraction
# T1 sequence (P30969 1-327): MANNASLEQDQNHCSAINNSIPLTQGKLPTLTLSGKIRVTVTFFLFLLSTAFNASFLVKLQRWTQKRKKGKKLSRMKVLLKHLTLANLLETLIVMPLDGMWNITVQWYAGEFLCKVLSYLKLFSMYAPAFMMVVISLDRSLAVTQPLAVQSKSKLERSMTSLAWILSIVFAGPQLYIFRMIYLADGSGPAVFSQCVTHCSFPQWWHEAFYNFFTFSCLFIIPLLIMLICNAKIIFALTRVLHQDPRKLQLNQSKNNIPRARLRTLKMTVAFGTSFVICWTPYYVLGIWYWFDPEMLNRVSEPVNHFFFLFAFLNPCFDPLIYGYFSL
# Procedure: Ten (10) μl of 3×10^4 M aqueous leuprolerin solution and 10 μl of 0.01 mg/ml lactoperoxidase were taken in a tube and 10 μl of Na^125 I solution (37 MBq) was added. After stirring, 10 μl of 0.001% H2 O2 was added and the reaction was conducted at room temperature for 20 minutes. Then, 700 μl of 0.05% TFA solution was added to the tube to terminate the reaction and the reaction mixture was purified by reverse-phase HPLC. The HPLC conditions are shown below. ^125 I-leuprolerin was eluted after a retention time of 26-27 minutes. (B) Preparation of a Rat Pituitary Anterior Lobe Membrane Fraction Containing GnRH Receptors […] The pituitary tissue was floated in 2 ml of the homogenate buffer and homogenized using a Polytron homogenizer. The homogenate was centrifuged at 700×G for 15 minutes. The supernatant was taken in an ultracentrifuge tube and centrifuged at 100,000×G for 1 hour to provide a membrane fraction pellet. […] The membrane fraction recovered as a pellet was resuspended in 10 ml of assay buffer, divided into portions, preserved at -80° C. and thawed when needed. […] For the rat and human membrane fractions prepared in (B) and (D), each membrane fraction was diluted with assay buffer to a concentration of 200 μg/ml and distributed in 188 μl portions into tubes. As to the bovine membrane fraction prepared in (C), the membrane fraction was diluted with assay buffer to 750 μg/ml and distributed in 188 μl portions into tubes. […] Where the rat or bovine pituitary anterior lobe membrane fraction was used, the reaction was conducted at 4° C. for 90 minutes. Where the membrane fraction of the CHO with human GnRH receptors expressed was used, the reaction was carried out at 25° C. for 60 minutes. […] After filtration, the radioactivity of ^125 I-leuprolerin remaining on the filter was measured with a γ-counter. The expression (TB-SB)/(TB-NSB)×100 (where SB=radioactivity with the compound added, TB=maximum bound radioactivity, NSB=nonspecifically bound radioactivity) was calculated to find the binding inhibition rate of each test compound.
# [2] = biological target: T2, GnRH receptors (bovine pituitary anterior lobe membrane fraction) (Bos taurus, UniProt P32236); assay: 125I-leuprolerin GnRH receptor binding inhibition test, bovine pituitary anterior lobe membrane fraction; conditions: 4° C., 90 minutes, read-out: Binding inhibitory activity (IC50 μM) Bovine
# T2 construct: A bovine pituitary anterior lobe membrane fraction containing GnRH receptors was prepared; from tissue; host or cells: bovine pituitary anterior lobe, membrane fraction
# T2 sequence (P32236 1-328): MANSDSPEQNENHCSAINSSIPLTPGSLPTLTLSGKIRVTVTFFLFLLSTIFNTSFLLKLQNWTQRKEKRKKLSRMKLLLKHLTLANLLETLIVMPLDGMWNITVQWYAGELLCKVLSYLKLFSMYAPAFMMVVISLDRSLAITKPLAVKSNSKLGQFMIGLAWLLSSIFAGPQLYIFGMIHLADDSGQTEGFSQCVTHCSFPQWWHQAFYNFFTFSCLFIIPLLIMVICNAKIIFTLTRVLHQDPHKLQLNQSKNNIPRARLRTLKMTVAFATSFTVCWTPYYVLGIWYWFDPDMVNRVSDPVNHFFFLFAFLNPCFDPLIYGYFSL
# Procedure: Ten (10) μl of 3×10^4 M aqueous leuprolerin solution and 10 μl of 0.01 mg/ml lactoperoxidase were taken in a tube and 10 μl of Na^125 I solution (37 MBq) was added. After stirring, 10 μl of 0.001% H2 O2 was added and the reaction was conducted at room temperature for 20 minutes. Then, 700 μl of 0.05% TFA solution was added to the tube to terminate the reaction and the reaction mixture was purified by reverse-phase HPLC. The HPLC conditions are shown below. ^125 I-leuprolerin was eluted after a retention time of 26-27 minutes. (C) Preparation of a Bovine Pituitary Anterior Lobe Membrane Fraction Containing GnRH Receptors A bovine pituitary anterior lobe membrane fraction containing GnRH receptors was prepared by the same procedure as described under (B). However, a 10,000×G centrifugation supernatant was recentrifuged at 100,000×G for 1 hour to provide the membrane fraction pellet. […] For the rat and human membrane fractions prepared in (B) and (D), each membrane fraction was diluted with assay buffer to a concentration of 200 μg/ml and distributed in 188 μl portions into tubes. As to the bovine membrane fraction prepared in (C), the membrane fraction was diluted with assay buffer to 750 μg/ml and distributed in 188 μl portions into tubes. […] Where the rat or bovine pituitary anterior lobe membrane fraction was used, the reaction was conducted at 4° C. for 90 minutes. Where the membrane fraction of the CHO with human GnRH receptors expressed was used, the reaction was carried out at 25° C. for 60 minutes. […] After filtration, the radioactivity of ^125 I-leuprolerin remaining on the filter was measured with a γ-counter. The expression (TB-SB)/(TB-NSB)×100 (where SB=radioactivity with the compound added, TB=maximum bound radioactivity, NSB=nonspecifically bound radioactivity) was calculated to find the binding inhibition rate of each test compound.
# serotonine (5-HT) uptake = assay: Activity to inhibit serotonine (5-HT) uptake; format: biochemical; conditions: rat whole brain; 3H-5-HT 10 nM; 37° C.; pH 7.4; read-out: 5-HT uptake inhibitory activity (IC50 μM)
# Procedure: (a) Activity to inhibit serotonine (5-HT) uptake
# (§1) The experiment was performed in accordance with the method of Hyttel et al. [Psychopharmacology 60, 13, 1978]. The whole brain of a rat was homogenized in 40 volumes of ice-cooled 0.32M sucrose solution containing 10 μM pargyline and, then, centrifuged (600×G) for 10 minutes. The supernatant was centrifuged (2500×G) for 55 minutes to provide a pellet. This pellet was suspended in Krebs-Ringer-phosphate buffer (pH 7.4; 122 mM NaCl, 4.82 mM KCl, 0.972 mM CaCl2, 1.21 mM MgSO4, 12.7 mM Na2 HPO4, 2.97 mM NaH2 PO4, 0.162 mM EDTA sodium, 10 mM glucose, 1.14 mM ascorbic acid) saturated with a mixed gas (95% O and 5% CO2). To 900 μl of this suspention was added a solution of the test drug (10 μl) in DMSO and the mixture was incubated at 37° C. for 5 minutes. Then, 100 μl of ^3 H-5-HT (final concentration 10 nM) was added and the mixture was further incubated at 37° C. for 5 minutes. This reaction mixture was filtered under suction using a GF/B filter and the filter was washed with 4 ml of the above-mentioned buffer. The radioactivity on the filter was measured by the liquid scintillation method.
# The amount of the drug which caused a 50% decrease in 5-HT uptake is shown as 50% inhibitory activity (IC50) in Table 42.
# [3] = system: norepinephrine (NE) uptake; assay: Activity to inhibit norepinephrine (NE) uptake; format: biochemical; conditions: rat cerebral cortex; 3H-NE; read-out: NE uptake inhibitory activity (IC50 μM)
# Procedure: as §1
# (b) Activity to inhibit norepinephrine (NE) uptake
# Using the rat cerebral cortex and, as the substrate, ^3 H-NE, an experiment was performed by otherwise the same procedure as described for 5-HT.
# [4] = system: 45Ca2+ uptake (veratrine-stimulated, rat cerebral cortex crude synaptosome fraction); assay: 45Ca2+ uptake inhibition experiment; format: biochemical; conditions: 30 μM veratrine, 37° C., 10 minutes, read-out: 45Ca2+ uptake inhibitory activity (IC50 μM)
# Procedure: The rat cerebral cortex was homogenized in 10 volumes of ice-cooled 0.32M sucrose solution to prepare a crude synaptosome fraction (100×G, 10 min., 12000×G, 20 min.). […] To 900 μl of the homogenate was added a DMSO solution of the test drug (10 μl). The mixture was incubated at 37° C. for 10 minutes, followed by addition of 100 μl of a veratrine solution (containing 0.18 uci ^45 Ca^2+) at a final veratrine concentration of 30 μM. The mixture was incubated at 37° C. for 10 minutes, quenched with 4 ml of ice-cooled EGTA solution (120 mM sodium chloride, 5 mM potassium chloride, 5 mM EGTA, pH=7.5) and suction-filtered using a GF/B filter. The filter was washed twice with 4 ml each of a washing solution (132 mM sodium chloride, 5 mM potassium chloride, 1.3 mM magnesium chloride, 1.2 mM calcium, chloride, 20 mM Tris base, pH 7.5) and the radioactivity of […] was measured by the liquid scintillation method.
# The ^45 Ca^2+ uptake inhibition rate was calculated by means of the following equation. [formula] A: The ^45 Ca^2+ uptake after 10 minutes' stimulation with 30 μM veratrine in the presence of the test drug
# B: The ^45 Ca^2+ uptake in the absence of veratrine and in the presence of the test drug
# C: The ^45 Ca^2+ uptake after 10 minutes' stimulation with 30 μM veratrine in the absence of the test drug
# D: The ^45 Ca^2+ uptake in the absence of the test drug and in the absence of veratrine
structure (smiles),measurement,setting,value
"COc1cc2c(cc1OC)CC1(CCCCN1CCCC1(c3ccccc3)COCc3ccccc31)CC2 (stereo not drawn) [Example I-37, 3,4-Dihydro-6,7-dimethoxy-1'-[3-(4-phenylisochroman-4-yl)propyl]spiro[naphthalene-2(1H),2'-piperidine] hydrochloride]",IC50,[1],0.03 µM
same,IC50,[2],6 µM
"O=C1c2ccccc2CCC12CCCCN2CCCC1(c2ccccc2)COCc2ccccc21 (stereo not drawn) [Example I-49, 3,4-Dihydro-1'-[3-(4-phenylisochroman-4-yl)propyl]spiro[1-oxonaphthalene-2(1H),2'-piperidine] hydrochloride]",IC50,[1],0.5 µM
same,IC50,[2],10 µM
"Cc1cccc(CNCCCC2(c3ccccc3)COCc3ccccc32)c1 (stereo not drawn) [Example I-46, 4-[3-(m-Methylbenzylamino)propyl]-4-phenylisochroman hydrochloride]",IC50,[1],0.5 µM
same,IC50,[2],14 µM
"COc1cc2c(cc1OC)CC1(CCCCN1CCCC1(c3ccc(F)cc3)COCc3ccccc31)CC2 (stereo not drawn) [Example I-50, 3,4-Dihydro-6,7-dimethoxy-1'-{3-[4-(p-fluorophenyl)isochroman-4-yl]propyl}spiro[naphthalene-2(1H),2'-piperidine] hydrochloride]",IC50,[1],0.08 µM
same,IC50,[2],8 µM
"Fc1ccc(N2CCN(CCCC3(c4ccccc4)COCc4ccccc43)CC2)cc1 (stereo not drawn) [Example I-30, 4-{3-[4-(p-Fluorophenyl)piperazin-1-yl]propyl}-4-phenylisochroman dihydrochloride]",IC50,serotonine (5-HT) uptake,0.068 µM
same,IC50,[3],0.59 µM
same,IC50,[4],1.59 µM
"COc1ccc(CCNCCCC2(c3ccccc3)COCc3ccccc32)cc1OC (stereo not drawn) [Example I-25, 4-[3-(3,4-Dimethoxyphenethylamino)propyl]-4-phenylisochroman hydrochloride]",IC50,serotonine (5-HT) uptake,0.14 µM
same,IC50,[3],0.39 µM
same,IC50,[4],1.19 µM
"c1ccc(C2CCN(CCCC3(c4ccccc4)COCc4ccccc43)CC2)cc1 (stereo not drawn) [Example I-33, 4-[3-(4.-Phenylpiperidino)propyl]-4-phenylisochroman hydrochloride]",IC50,serotonine (5-HT) uptake,0.27 µM
same,IC50,[3],0.55 µM
same,IC50,[4],0.69 µM
"c1ccc(C2(CCCNC3CCCc4ccccc43)COCc3ccccc32)cc1 (stereo not drawn) [Example I-51, 4-Phenyl-4-{3-[1-(1,2,3,4-tetrahydronaphthylamino)]propyl]isochroman hydrochloride]",IC50,[1],0.5 µM
same,IC50,[2],10 µM
"c1ccc(C2(CCN3CCCCC34CCc3ccccc3C4)COCc3ccccc32)cc1 (stereo not drawn) [Example I-12, 3,4-Dihydro-1'-[2-(4-phenylisochroman-4-yl)ethyl]spiro[naphthalene-2(1H),2'-piperidine] hydrochloride]",IC50,serotonine (5-HT) uptake,0.022 µM
same,IC50,[3],0.015 µM
same,IC50,[4],0.85 µM
"CN(CCCC1(c2ccccc2)CN(C(=O)Nc2ccccc2)Cc2ccccc21)Cc1ccccc1 (stereo not drawn) [IV-19, 4-[3-(N-Benzyl-N-methylamino)propyl]-4-phenyl-2-phenylcarbamoyl-1,2,3,4-tetrahydroisoquinoline hydrochloride]",IC50,serotonine (5-HT) uptake,0.23 µM
same,IC50,[3],0.56 µM
same,IC50,[4],0.95 µM
"O=C1c2ccsc2CCC12CCCCN2CCCC1(c2ccccc2)COCc2ccccc21 (stereo not drawn) [Example I-47, 6,7-Dihydro-1'-[3-(4-phenylisochroman-4-yl)propyl]spiro[4-oxobenzo(b)thiophene-5(4H),2'-piperidine] hydrochloride]",IC50,[1],0.3 µM
same,IC50,[2],7 µM
"COc1cccc(NC(=O)N2Cc3ccccc3C(CCN3CCN(c4ccc(F)cc4)CC3)(c3ccccc3)C2)c1 (stereo not drawn) [IV-20, 1,2,3,4-Tetrahydro-4-{2-[4-(p-fluorophenyl)piperazin-1-yl]ethyl}-2-(3-methoxyphenyl)carbamoyl-4-phenylisoquinoline hydrochloride]",IC50,serotonine (5-HT) uptake,0.03 µM
same,IC50,[3],0.12 µM
same,IC50,[4],0.17 µM

# From patent US5654296A, “Condensed heterocyclic compounds, their production and use” (priority 1994, dated 1997)
